# Assay results taken from patent publication US20060217405A1, “Interstitial cystitis treatment” (Indevus Pharmaceuticals, Inc., priority 2005, published 2006).
# Columns and labels:
# [1] = system: interstitial cystitis patients; details: cited from earlier work
# bladder afferent nerves = test: Intravesical trospium and carbachol experiments; format: in vivo; details: for direct effect on interstitial cystitis: trospium at low dose
# Excerpt: The action of trospium is unique because it has selective activity on the bladder urothelium and bladder afferent nerves. The local trospium bladder effect is on the afferent nerve rather than bladder smooth muscle. The effect of intravesical administered trospium was not blocked by pre treatment of capsaicin or resiniferatoxin. This indicates the afferent nerve effect is that of A-delta and not C-fibers.
# [2] = system: interstitial cystitis patients; details: bladder instillation; cited from earlier work
# animals = details: animal studies; cited from earlier work
# human subject = test: Intravesical instillation of trospium chloride in human female subjects; format: in vivo; details: 0.5 mcg/ml twice daily intravesical
# Protocol: A human subject, and weighing approximately 70 kg, presents with a sense of urgency and frequency to urinate, although they are not incontinent. The subject experiences pain and other pelvic discomfort, however, while attempting to urinate. Trospium chloride at a concentration of 0.5 mcg/ml is administered twice daily by intravesical instillation to the subject for a total dose of 2.0 mg trospium chloride per day. The dosing regimen is continued for six (6) weeks.
# A human subject, and weighing approximately 60 kg, presents with incontinence. Trospium chloride at a concentration of 0.5 mcg/ml is administered twice daily by intravesical instillation to the subject for a total dose of 1.6 mg trospium chloride per day. The dosing regimen is continued for eight (8) months.
# [3] = cited from earlier work
# patients = test: Intravesicular instillation of trospium chloride in patients; format: in vivo, human
# Excerpt: Trospium chloride is a quaternary ammonium compound that concentrates in the urine primarily unchanged and is believed to have local antispasmodic activity. […] Therefore the use of trospium, especially by intravesicular instillation, is a novel treatment for interstitial cystitis with the very low potential for systemic side effects.
# female SD rats = test: Cystometrogram (CMG) in anesthetized rats after intravesical instillation; format: in vivo, rat; details: 0.5 mcg/ml, approx. 5 ml intravesical, 10-30 minutes, urethane anesthesia
# Protocol: Baseline cystometrogram (CMG) is measured in a group of 6 female SD rats (250 grams). The rats are anesthetized utilizing urethane anesthesia at a rate of 1.2 g/kg. Trospium chloride at a concentration of 0.5 mcg/ml is administered by intravesical instillation. Approximately, 5 ml are instilled. The trospium solution is maintained in the rat bladder for a period of 10-30 minutes. At the end of that period the solution is expelled and the CMG measured.
molecule,measurement,setting,value
pentosan polysulfate sodium,side effects,[1]; oral Elmiron,"primarily gastrointestinal discomfort, although some patients experienced hair loss"
same,patients treated whose symptoms improved,"[1]; oral, clinical trials, interstitial cystitis",38%
C[N+](C)(C)CCOC(N)=O [carbachol],direct effect on interstitial cystitis,bladder afferent nerves; intravesical,decreased
"C[S+](C)[O-] [DMSO, dimethyl sulfoxide]",average duration of significant pain relief,[2],about 10 months
same,duration of garlic-like taste and odor on the breath and skin after treatment,[2],up to 72 hours
same,patients experiencing significant pain relief,[2],About 50%
same,side effect of long-term treatment,animals,cataracts
O=C(O[C@H]1C[C@H]2CC[C@@H](C1)[N+]21CCCC1)C(O)(c1ccccc1)c1ccccc1 [trospium chloride],"urge, frequency and incontinence episodes","human subject; 1.6 mg per day, eight months, incontinence",significant reduction
same,pain when attempting to urinate,"human subject; 2.0 mg per day, six weeks, urgency, frequency, pain",no longer experiences pain
same,metabolism,[3]; in vivo,minimally metabolized
same,protein binding,[3]; in vivo,not highly protein-bound
same,plasma half-life,[3]; oral 20 mg tablets,about 20 hrs
same,excreted through the feces,[3]; oral,85.2%
same,excreted through urine (tubular secretion),[3]; oral,5.8%
same,recognized side effects,[3]; oral,"dry mouth, constipation, headache urinary retention and dry eyes"
same,absorption into the systemic circulation,patients,little or no absorption
same,acetic-acid induced bladder overactivity,female SD rats,significantly suppressed
same,bladder contractions during voiding,female SD rats,without affecting
same,effect of intravesical trospium after pre treatment of capsaicin or resiniferatoxin,bladder afferent nerves; intravesical,not blocked
same,direct effect on interstitial cystitis,bladder afferent nerves; intravesical,no direct effect
same,effect on the inhibitory effect of carbachol,bladder afferent nerves; low dose of trospium,completely blocked
